Test results from US11083725B2 (priority 2014, dated 2021).

Tested on: NHBE cells
Assay: Biolog metabolic array: substrate use by NHBE cells with or without CA09 infection
Assay type: cell-based, human
Conditions: for Substrate use, 590 nm absorbance normalized to zero hour, 1 hr: Biolog PMM2, 1 hr; for Substrate use, 590 nm absorbance normalized to zero hour, 5 hr: Biolog PMM2, 5 hr; for Substrate use, 590 nm absorbance normalized to zero hour, 7 hr: Biolog PMM2, 7 hr; for Substrate use, 590 nm absorbance normalized to zero hour, 0 hr: Biolog PMM2, 0 hr
[1] = Control (uninfected) NHBE cells
[2] = Virus (CA09-infected NHBE cells, MOI 1)
[3] = Virus: CA09-infected NHBE cells, MOI 1, Biolog PMM2
[4] = Virus (CA09-infected, MOI 1) NHBE cells
[5] = Virus (CA09, MOI 1) infected NHBE cells

## O=C(O)CC(CC(=O)O)C(=O)O [Tricarballylic Acid]
[1]
  590 nm absorbance normalized to zero hour (substrate use), 1 hr: 1.07
  590 nm absorbance normalized to zero hour (substrate use), 2 hr: 1.03
  590 nm absorbance normalized to zero hour (substrate use), 3 hr: 0.79
  590 nm absorbance normalized to zero hour (substrate use), 4 hr: 1.20
  590 nm absorbance normalized to zero hour (substrate use), 6 hr: 0.35
  590 nm absorbance normalized to zero hour (substrate use), 8 hr: 0.54
  590 nm absorbance normalized to zero hour (substrate use), 9 hr: 0.83
  590 nm absorbance normalized to zero hour (substrate use), 10 hr: 0.74
  590 nm absorbance normalized to zero hour (substrate use), 11 hr: 0.59
  Substrate use, 590 nm absorbance normalized to zero hour, 1 hr: 1.07
  Substrate use, 590 nm absorbance normalized to zero hour, 5 hr: 0.72
  Substrate use, 590 nm absorbance normalized to zero hour, 7 hr: 0.89
[2]
  590 nm absorbance normalized to zero hour (substrate use), 1 hr: 0.20
  590 nm absorbance normalized to zero hour (substrate use), 2 hr: 0.25
  590 nm absorbance normalized to zero hour (substrate use), 3 hr: 0.29
  590 nm absorbance normalized to zero hour (substrate use), 4 hr: 0.29
  590 nm absorbance normalized to zero hour (substrate use), 5 hr: 0.32
  590 nm absorbance normalized to zero hour (substrate use), 6 hr: 0.34
  590 nm absorbance normalized to zero hour (substrate use), 7 hr: 0.36
  590 nm absorbance normalized to zero hour (substrate use), 8 hr: 0.36
  590 nm absorbance normalized to zero hour (substrate use), 9 hr: 0.39
  590 nm absorbance normalized to zero hour (substrate use), 10 hr: 0.40
  590 nm absorbance normalized to zero hour (substrate use), 11 hr: 0.38
[3]
  590 nm absorbance normalized to zero hour (substrate use), 1 hr: 0.20
  590 nm absorbance normalized to zero hour (substrate use), 2 hr: 0.25
  590 nm absorbance normalized to zero hour (substrate use), 3 hr: 0.29
  590 nm absorbance normalized to zero hour (substrate use), 4 hr: 0.29
  590 nm absorbance normalized to zero hour (substrate use), 5 hr: 0.32
  590 nm absorbance normalized to zero hour (substrate use), 6 hr: 0.34
  590 nm absorbance normalized to zero hour (substrate use), 7 hr: 0.36
  590 nm absorbance normalized to zero hour (substrate use), 8 hr: 0.36
  590 nm absorbance normalized to zero hour (substrate use), 9 hr: 0.39
  590 nm absorbance normalized to zero hour (substrate use), 10 hr: 0.40
  590 nm absorbance normalized to zero hour (substrate use), 11 hr: 0.38

## O=C(CO)[C@@H](O[C@H]1O[C@H](CO)[C@@H](O)[C@H](O)[C@H]1O)[C@H](O)[C@H](O)CO [Turanose]
[1]
  590 nm absorbance normalized to zero hour (substrate use), 0 hr: 1.00
  590 nm absorbance normalized to zero hour (substrate use), 1 hr: 0.23
  590 nm absorbance normalized to zero hour (substrate use), 2 hr: 0.31
  590 nm absorbance normalized to zero hour (substrate use), 3 hr: 0.36
  590 nm absorbance normalized to zero hour (substrate use), 4 hr: 0.40
  590 nm absorbance normalized to zero hour (substrate use), 6 hr: 0.49
  590 nm absorbance normalized to zero hour (substrate use), 8 hr: 0.51
  590 nm absorbance normalized to zero hour (substrate use), 9 hr: 0.57
  590 nm absorbance normalized to zero hour (substrate use), 10 hr: 0.57
  590 nm absorbance normalized to zero hour (substrate use), 11 hr: 0.60
  Substrate use, 590 nm absorbance normalized to zero hour, 0 hr: 1.00
  Substrate use, 590 nm absorbance normalized to zero hour, 1 hr: 0.23
  Substrate use, 590 nm absorbance normalized to zero hour, 5 hr: 0.55
  Substrate use, 590 nm absorbance normalized to zero hour, 7 hr: 0.44
[4]
  590 nm absorbance normalized to zero hour (substrate use), 0 hr: 1.00
  590 nm absorbance normalized to zero hour (substrate use), 1 hr: 0.20
  590 nm absorbance normalized to zero hour (substrate use), 2 hr: 0.28
  590 nm absorbance normalized to zero hour (substrate use), 3 hr: 0.34
  590 nm absorbance normalized to zero hour (substrate use), 4 hr: 0.36
  590 nm absorbance normalized to zero hour (substrate use), 5 hr: 0.44
  590 nm absorbance normalized to zero hour (substrate use), 6 hr: 0.48
  590 nm absorbance normalized to zero hour (substrate use), 7 hr: 0.51
  590 nm absorbance normalized to zero hour (substrate use), 8 hr: 0.56
  590 nm absorbance normalized to zero hour (substrate use), 9 hr: 0.61
  590 nm absorbance normalized to zero hour (substrate use), 10 hr: 0.60
  590 nm absorbance normalized to zero hour (substrate use), 11 hr: 0.55
[3]
  590 nm absorbance normalized to zero hour (substrate use), 0 hr: 1.00
  590 nm absorbance normalized to zero hour (substrate use), 1 hr: 0.20
  590 nm absorbance normalized to zero hour (substrate use), 2 hr: 0.28
  590 nm absorbance normalized to zero hour (substrate use), 3 hr: 0.34
  590 nm absorbance normalized to zero hour (substrate use), 4 hr: 0.36
  590 nm absorbance normalized to zero hour (substrate use), 5 hr: 0.44
  590 nm absorbance normalized to zero hour (substrate use), 6 hr: 0.48
  590 nm absorbance normalized to zero hour (substrate use), 7 hr: 0.51
  590 nm absorbance normalized to zero hour (substrate use), 8 hr: 0.56
  590 nm absorbance normalized to zero hour (substrate use), 9 hr: 0.61
  590 nm absorbance normalized to zero hour (substrate use), 10 hr: 0.60
  590 nm absorbance normalized to zero hour (substrate use), 11 hr: 0.55

## OC[C@@H](O)[C@H](O)[C@@H](O)CO [Xylitol]
[1]
  590 nm absorbance normalized to zero hour (substrate use), 1 hr: 1.02
  590 nm absorbance normalized to zero hour (substrate use), 2 hr: 1.53
  590 nm absorbance normalized to zero hour (substrate use), 3 hr: 1.57
  590 nm absorbance normalized to zero hour (substrate use), 4 hr: 1.01
  590 nm absorbance normalized to zero hour (substrate use), 6 hr: 0.40
  590 nm absorbance normalized to zero hour (substrate use), 8 hr: 1.49
  590 nm absorbance normalized to zero hour (substrate use), 9 hr: 1.02
  590 nm absorbance normalized to zero hour (substrate use), 10 hr: 0.97
  590 nm absorbance normalized to zero hour (substrate use), 11 hr: 0.97
  Substrate use, 590 nm absorbance normalized to zero hour, 1 hr: 1.02
  Substrate use, 590 nm absorbance normalized to zero hour, 5 hr: 1.51
  Substrate use, 590 nm absorbance normalized to zero hour, 7 hr: 1.01
[5]
  Substrate use, 590 nm absorbance normalized to zero hour, 1 hr: 1.69
  Substrate use, 590 nm absorbance normalized to zero hour, 5 hr: 3.95
  Substrate use, 590 nm absorbance normalized to zero hour, 7 hr: 4.50
[4]
  590 nm absorbance normalized to zero hour (substrate use), 1 hr: 1.69
  590 nm absorbance normalized to zero hour (substrate use), 2 hr: 2.39
  590 nm absorbance normalized to zero hour (substrate use), 3 hr: 3.14
  590 nm absorbance normalized to zero hour (substrate use), 4 hr: 3.34
  590 nm absorbance normalized to zero hour (substrate use), 6 hr: 4.25
  590 nm absorbance normalized to zero hour (substrate use), 8 hr: 4.55
  590 nm absorbance normalized to zero hour (substrate use), 9 hr: 5.13
  590 nm absorbance normalized to zero hour (substrate use), 10 hr: 4.85
  590 nm absorbance normalized to zero hour (substrate use), 11 hr: 5.48

## OC[C@H]1O[C@@H]2O[C@H]3[C@H](O)[C@@H](O)[C@@H](O[C@H]4[C@H](O)[C@@H](O)[C@@H](O[C@H]5[C@H](O)[C@@H](O)[C@@H](O[C@H]6[C@H](O)[C@@H](O)[C@@H](O[C@H]7[C@H](O)[C@@H](O)[C@@H](O[C@H]1[C@H](O)[C@H]2O)O[C@@H]7CO)O[C@@H]6CO)O[C@@H]5CO)O[C@@H]4CO)O[C@@H]3CO [a-Cyclo-dextrin]
[1]
  590 nm absorbance normalized to zero hour (substrate use), 0 hr: 1.00
  590 nm absorbance normalized to zero hour (substrate use), 1 hr: 1.89
  590 nm absorbance normalized to zero hour (substrate use), 2 hr: 2.66
  590 nm absorbance normalized to zero hour (substrate use), 3 hr: 3.24
  590 nm absorbance normalized to zero hour (substrate use), 4 hr: 3.50
  590 nm absorbance normalized to zero hour (substrate use), 6 hr: 4.31
  590 nm absorbance normalized to zero hour (substrate use), 8 hr: 5.25
  590 nm absorbance normalized to zero hour (substrate use), 9 hr: 5.99
  590 nm absorbance normalized to zero hour (substrate use), 10 hr: 6.37
  590 nm absorbance normalized to zero hour (substrate use), 11 hr: 5.86
  Substrate use, 590 nm absorbance normalized to zero hour, 0 hr: 1.00
  Substrate use, 590 nm absorbance normalized to zero hour, 1 hr: 1.89
  Substrate use, 590 nm absorbance normalized to zero hour, 5 hr: 4.31
  Substrate use, 590 nm absorbance normalized to zero hour, 7 hr: 4.96
[4]
  590 nm absorbance normalized to zero hour (substrate use), 0 hr: 1.00
  590 nm absorbance normalized to zero hour (substrate use), 1 hr: 1.86
  590 nm absorbance normalized to zero hour (substrate use), 2 hr: 2.62
  590 nm absorbance normalized to zero hour (substrate use), 3 hr: 2.99
  590 nm absorbance normalized to zero hour (substrate use), 4 hr: 3.18
  590 nm absorbance normalized to zero hour (substrate use), 5 hr: 3.75
  590 nm absorbance normalized to zero hour (substrate use), 6 hr: 4.06
  590 nm absorbance normalized to zero hour (substrate use), 7 hr: 4.29
  590 nm absorbance normalized to zero hour (substrate use), 8 hr: 4.56
  590 nm absorbance normalized to zero hour (substrate use), 9 hr: 4.96
  590 nm absorbance normalized to zero hour (substrate use), 10 hr: 5.19
  590 nm absorbance normalized to zero hour (substrate use), 11 hr: 4.09
[3]
  590 nm absorbance normalized to zero hour (substrate use), 0 hr: 1.00
  590 nm absorbance normalized to zero hour (substrate use), 1 hr: 1.86
  590 nm absorbance normalized to zero hour (substrate use), 2 hr: 2.62
  590 nm absorbance normalized to zero hour (substrate use), 3 hr: 2.99
  590 nm absorbance normalized to zero hour (substrate use), 4 hr: 3.18
  590 nm absorbance normalized to zero hour (substrate use), 5 hr: 3.75
  590 nm absorbance normalized to zero hour (substrate use), 6 hr: 4.06
  590 nm absorbance normalized to zero hour (substrate use), 7 hr: 4.29
  590 nm absorbance normalized to zero hour (substrate use), 8 hr: 4.56
  590 nm absorbance normalized to zero hour (substrate use), 9 hr: 4.96
  590 nm absorbance normalized to zero hour (substrate use), 10 hr: 5.19
  590 nm absorbance normalized to zero hour (substrate use), 11 hr: 4.09
